Measurements from patent US20260224533A1, “CRYSTALLINE NANOPARTICLES COMPRISING ENZALUTAMIDE” (HELM PHARMACEUTICALS GMBH, priority 2023, published 2026).
In brackets after ≈: the same amount, converted by molar mass.

What was measured:
[1] = Kinetic solubility of Enzalutamide in simulated fluids; format: physicochemical; conditions: kinetic from dmso stock, 37° C.
Source text: Preferably, the content of the amorphous nanosized Enzalutamide in the slurry or suspension is at least 10 times higher, more preferably at least 50 times, still more preferably at least 100 times higher, even more preferably at least 500 times higher than its solubility in the liquid, preferably aqueous solution, comprising the one or more polymers and/or copolymers to form the suspension or the slurry. Accordingly, the amount of Enzalutamide amorphous nanoparticles provided in step (a) that is needed depends on its solubility. The solubility can be measured by any method known in the art. […] A decent slurry can thus be produced when the slurry or suspension comprises e.g. 5 mg of the amorphous nanoparticles provided in step (a) in 1 mL of the slurry or suspension.

[2] = cited from earlier work

solubility kinetic ([1]; Fasted State Simulated Intestinal Fluid (FaSSIF)): ~74 µg/mL (≈ 159 µM) | solubility kinetic ([1]; Simulated Gastric Fluid (SGF)): ~50 µg/mL (≈ 108 µM)
Structure (SMILES): CNC(=O)c1ccc(N2C(=S)N(c3ccc(C#N)c(C(F)(F)F)c3)C(=O)C2(C)C)cc1F [Enzalutamide]
solubility in water [2]: insoluble
